The values that follow come from US7183075B2, “Purified and isolated potassium-chloride cotransporter nucleic acids and polypeptides and therapeutic and screening methods using same” (Vanderbilt University, priority 2000, dated 2007).

The target in test [1] is mKCC4 mutant C256A/C469N/C565A/C647M (Mus musculus, UniProt Q9WVL3, C257A/C469N/C565A/C647M). How it is done: (§1) Mercury is known to inhibit several transporters via interaction with transmembrane or juxtamembrane cysteines (Kuwahara et al. (1997) Biochemistry 36:13973–13978; Jacoby (1999) Am J Physiol 277:C684–692). Given the inhibition of the KCCs by millimolar NEM at room temperature, presumed due to alkylation of cysteine residues (Mercado et al. (2000) J Biol Chem 275:30326–3034), the differential response of the KCCs to 50 μM mercury (Hg—Cl2) was examined. […] Of note, a cysteine residue in TM11 of NKCC1 is involved in the response of Na^+—K^+-2Cl^− cotransport to mercury (Jacoby (1999) Am J Physiol 277:C684–692).

Test [2] addresses mKCC4 mutant C256A/C469N/C565A/C647M/C633S (Mus musculus, UniProt Q9WVL3, C257A/C469N/C565A/C633S/C647M). How it is done:
as §1

Test [3] concerns the target T1, hKCC3b (Homo sapiens, UniProt Q9UHW9).
T1 construct: expressed in transfected cells; host or cells: Xenopus oocytes microinjected with KCC3b cRNA
T1 sequence (Q9UHW9 1-1099 isoform Q9UHW9-2): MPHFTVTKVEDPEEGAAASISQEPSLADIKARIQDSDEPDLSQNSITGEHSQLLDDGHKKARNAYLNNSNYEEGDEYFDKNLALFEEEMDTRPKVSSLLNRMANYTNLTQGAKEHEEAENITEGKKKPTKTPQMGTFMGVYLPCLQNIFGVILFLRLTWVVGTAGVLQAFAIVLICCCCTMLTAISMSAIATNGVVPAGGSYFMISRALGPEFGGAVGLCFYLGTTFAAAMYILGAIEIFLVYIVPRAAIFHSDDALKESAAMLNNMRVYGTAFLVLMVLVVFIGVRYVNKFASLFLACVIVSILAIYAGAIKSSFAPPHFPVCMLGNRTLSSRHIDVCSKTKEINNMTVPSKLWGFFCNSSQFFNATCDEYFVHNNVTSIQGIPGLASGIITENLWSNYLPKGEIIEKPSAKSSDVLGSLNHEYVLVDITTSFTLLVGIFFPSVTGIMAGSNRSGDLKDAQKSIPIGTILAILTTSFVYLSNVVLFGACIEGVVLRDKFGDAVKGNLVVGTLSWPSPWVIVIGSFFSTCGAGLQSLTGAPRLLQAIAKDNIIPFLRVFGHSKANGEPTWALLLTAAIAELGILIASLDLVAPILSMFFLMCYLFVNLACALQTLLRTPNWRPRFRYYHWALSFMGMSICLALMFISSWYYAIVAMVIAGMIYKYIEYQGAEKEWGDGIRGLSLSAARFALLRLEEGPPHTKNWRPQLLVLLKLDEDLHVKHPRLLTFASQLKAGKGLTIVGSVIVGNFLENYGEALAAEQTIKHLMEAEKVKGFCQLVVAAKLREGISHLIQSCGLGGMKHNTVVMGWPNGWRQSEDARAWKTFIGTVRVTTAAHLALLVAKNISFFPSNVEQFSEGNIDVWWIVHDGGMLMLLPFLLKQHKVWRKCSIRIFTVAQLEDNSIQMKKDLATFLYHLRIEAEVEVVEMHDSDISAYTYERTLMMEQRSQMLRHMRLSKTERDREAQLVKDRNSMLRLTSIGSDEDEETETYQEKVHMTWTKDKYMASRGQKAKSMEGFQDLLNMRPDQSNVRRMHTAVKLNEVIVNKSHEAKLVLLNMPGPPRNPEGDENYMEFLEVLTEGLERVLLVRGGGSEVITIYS
Format: cell-based. The settings on record: 2 mM furosemide; 100 nM calyculin A. How it is done: Open bars, uptake assays performed in a control medium containing 10 mM K^+and 50 mM Cl^−; hatched bars, uptake assays performed in medium lacking Cl^−; bars with horizontal stripes, uptake assays performed in the presence of 100 nM calyculin A; black bars, uptake assays performed in the presence of okadaic acid; gray bars, uptake assays performed in the presence of cypermetrin.

Test [4] addresses T2, rat KCC2 (Rattus norvegicus, UniProt Q63633).
T2 construct: host or cells: HEK293 cells
T2 sequence (Q63633 1-1116 isoform Q63633-2): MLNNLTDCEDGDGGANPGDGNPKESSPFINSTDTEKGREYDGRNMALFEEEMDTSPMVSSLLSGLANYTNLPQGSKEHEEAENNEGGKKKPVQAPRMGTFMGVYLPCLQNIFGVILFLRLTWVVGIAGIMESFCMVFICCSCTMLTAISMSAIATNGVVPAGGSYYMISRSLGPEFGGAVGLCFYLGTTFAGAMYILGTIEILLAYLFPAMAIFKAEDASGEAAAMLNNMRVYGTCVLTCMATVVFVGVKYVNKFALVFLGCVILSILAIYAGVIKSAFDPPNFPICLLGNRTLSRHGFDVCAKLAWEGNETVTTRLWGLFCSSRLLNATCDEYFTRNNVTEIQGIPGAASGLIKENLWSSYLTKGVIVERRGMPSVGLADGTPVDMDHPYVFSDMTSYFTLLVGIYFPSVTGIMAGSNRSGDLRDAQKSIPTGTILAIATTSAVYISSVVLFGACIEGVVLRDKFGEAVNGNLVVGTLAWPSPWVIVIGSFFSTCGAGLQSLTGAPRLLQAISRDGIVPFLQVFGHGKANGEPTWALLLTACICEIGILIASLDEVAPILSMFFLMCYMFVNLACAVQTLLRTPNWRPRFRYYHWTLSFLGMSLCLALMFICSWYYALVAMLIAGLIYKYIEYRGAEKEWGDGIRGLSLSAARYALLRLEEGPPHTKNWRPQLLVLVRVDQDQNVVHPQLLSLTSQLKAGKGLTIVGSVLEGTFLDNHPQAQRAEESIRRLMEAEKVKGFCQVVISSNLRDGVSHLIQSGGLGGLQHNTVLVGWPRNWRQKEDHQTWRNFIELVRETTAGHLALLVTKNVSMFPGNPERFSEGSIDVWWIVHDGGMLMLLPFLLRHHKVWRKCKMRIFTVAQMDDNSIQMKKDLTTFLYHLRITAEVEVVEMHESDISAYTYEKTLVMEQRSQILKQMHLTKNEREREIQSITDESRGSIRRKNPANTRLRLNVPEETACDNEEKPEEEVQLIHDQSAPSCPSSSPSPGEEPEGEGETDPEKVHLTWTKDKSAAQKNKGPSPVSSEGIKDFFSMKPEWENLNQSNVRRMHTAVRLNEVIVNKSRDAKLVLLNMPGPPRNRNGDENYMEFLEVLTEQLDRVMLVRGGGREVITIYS
The settings on record: rat KCC2 in HEK293 cells; read-out: chloride affinity (Km) reported for rKCC2; cited from earlier work.

Some results are limits rather than exact numbers.

mKCC4 mutant C256A/C469N/C565A/C647M, sequence (Q9WVL3 whole entry C257A/C469N/C565A/C647M): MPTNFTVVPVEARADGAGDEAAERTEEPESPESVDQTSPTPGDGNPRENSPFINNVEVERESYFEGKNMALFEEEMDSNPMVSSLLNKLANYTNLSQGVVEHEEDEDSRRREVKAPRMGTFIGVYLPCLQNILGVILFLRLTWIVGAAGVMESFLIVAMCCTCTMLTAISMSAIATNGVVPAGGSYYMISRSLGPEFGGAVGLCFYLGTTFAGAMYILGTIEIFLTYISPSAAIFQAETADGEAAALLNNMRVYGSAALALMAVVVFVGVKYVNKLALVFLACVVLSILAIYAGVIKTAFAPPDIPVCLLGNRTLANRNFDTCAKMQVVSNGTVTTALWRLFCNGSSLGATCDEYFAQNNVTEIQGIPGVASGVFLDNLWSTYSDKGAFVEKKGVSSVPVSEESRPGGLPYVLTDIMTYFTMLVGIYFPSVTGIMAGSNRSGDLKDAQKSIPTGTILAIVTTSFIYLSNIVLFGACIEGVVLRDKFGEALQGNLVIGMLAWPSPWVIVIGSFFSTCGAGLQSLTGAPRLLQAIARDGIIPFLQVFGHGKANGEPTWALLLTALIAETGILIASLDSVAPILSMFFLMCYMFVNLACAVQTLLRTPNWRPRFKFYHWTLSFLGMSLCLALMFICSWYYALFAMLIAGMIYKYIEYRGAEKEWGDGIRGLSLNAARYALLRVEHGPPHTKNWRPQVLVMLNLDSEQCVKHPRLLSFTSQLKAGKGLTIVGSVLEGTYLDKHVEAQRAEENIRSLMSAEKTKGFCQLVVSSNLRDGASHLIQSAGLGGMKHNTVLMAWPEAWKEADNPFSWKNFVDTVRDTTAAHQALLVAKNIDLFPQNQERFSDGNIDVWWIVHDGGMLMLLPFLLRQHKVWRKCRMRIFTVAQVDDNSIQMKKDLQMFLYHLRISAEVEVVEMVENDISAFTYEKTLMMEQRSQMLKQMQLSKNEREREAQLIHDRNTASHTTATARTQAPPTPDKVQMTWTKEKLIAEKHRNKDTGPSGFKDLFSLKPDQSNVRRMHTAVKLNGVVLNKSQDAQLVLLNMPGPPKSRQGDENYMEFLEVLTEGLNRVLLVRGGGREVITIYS
mKCC4 mutant C256A/C469N/C565A/C647M/C633S, sequence (Q9WVL3 whole entry C257A/C469N/C565A/C633S/C647M): as the sequence (Q9WVL3 whole entry C257A/C469N/C565A/C647M) above, with C633S counted along it

For HgCl2 [Hg—Cl2], in test [1], the “response of quadruple mutant mKCC4 to HgCl2” value was “weakly sensitive”. The “response of quintuple mutant mKCC4 to HgCl2” value in test [2] is reported as “resistant”.

In the case of `COC[C@@H]([C@H](O)[C@H](O)C(=O)NCC[C@H](C)c1nc(/C=C/C[C@@H]2O[C@]3(C[C@@H](O)[C@@H]2C)O[C@H]([C@H](C[C@H](O)[C@H](C)[C@H](O)[C@H](C)/C=C(C)/C(C)=C/C=C/C(C)=C\C#N)OC)[C@H](OP(=O)(O)O)C3(C)C)co1)N(C)C` [calyculin A], the “hKCC3b-mediated K+-Cl- cotransport in the presence of putative inhibitors” value in test [3] is given as “blocked”.

Usually Km stands for the substrate concentration at which the rate is half of its maximum. For `Cl` [Chloride], the Km in test [4] was more than 50 mM.
